# Results: patent US8748466B2, “Isoxazole derivatives useful as antibacterial agents” (Pfizer Inc., priority 2011, dated 2014)
# Read-outs that look alike come from different tables or passages of the source.
# What was measured:
# [1] = system: Pseudomonas aeruginosa UC12120 (mouse virulent); assay: MIC determination (CLSI), PA-UC12120; type: cell-based; settings: UC12120, read-out: PA-UC12120 MIC
# Experimental: (§1) The in vitro antibacterial activity of compounds described in the Examples was evaluated by minimum inhibitory concentration (MIC) testing according to Clinical and Laboratory Standards Institute (CLSI). See: Clinical and Laboratory Standards Institute. Methods for Dilution Antimicrobial Susceptibility Tests for Bacteria that Grow Aerobically; Approved Standard-Eighth Edition. CLSI document M7-A8 [ISBN 1-56238-689-1]. Clinical and Laboratory Standards Institute, 940 West Valley Road, Suite 1400, Wayne, Pa. 19087-1898 USA, 2006; also Clinical and Laboratory Standards Institute. Performance Standards for Antimicrobial Susceptibility Testing; Twentieth Informational Supplement. CLSI document M100-S20 [ISBN1-56238-716-2]. Clinical and Laboratory Standards Institute.
# (§2) The MIC determination is a standard laboratory method for evaluating the antibacterial activity of a compound. The MIC represents the lowest drug concentration that inhibits visible growth of bacteria following overnight incubation. […] Typically, the drug concentration range is broken down into 2-fold increments (e.g., 0.06 μg/mL, 0.12 μg/mL. 0.25 μg/mL, 0.50 μg/mL, 1.0 μg/mL, etc.) and the various drug concentrations are all individually incubated overnight with approximately the same number of bacteria. The MIC is then determined by visually inspecting the drug effect at each concentration, and identifying the lowest drug concentration that has inhibited bacterial growth as compared to the drug free control. Typically, bacteria continue to grow at drug concentrations lower than the MIC and don't grow at concentrations at and above the MIC.
# (§3) The MIC values described in Tables 4 and 5 below were derived from assays wherein each test compound was evaluated in duplicate. In cases where the duplicate values varied by 0-2-fold, the lower of the two values was reported below. Generally speaking, if the duplicate values varied by more than 2-fold, the assay was considered non-valid and was repeated until the variation between duplicate runs was 2-fold. In line with the CLSI guidelines referred to above, both control organisms and reference compounds were utilized in each MIC assay to provide proper quality control. MIC values generated with these control organisms and reference compounds were required to fall within a defined range for the assay to be considered valid and be included herein. Those skilled in the art will recognize that MIC values can and do vary from experiment to experiment. Generally speaking, it should be recognized that MIC values often vary +/−2-fold from experiment to experiment. While a single MIC is reported for each compound and each microorganism, the reader should not conclude that each compound was only tested once. Several of the compounds were subjected to multiple tests. The data reported in Tables 4 and 5 is reflective of the compound's relative activity and different MICs may have been generated on these occasions in line with the guidelines described above.
# (§4) The following bacterial strains were used in these MIC determinations:
# 1) Pseudomonas aeruginosa UC12120 (mouse virulent) labeled as PA-UC12120 in Tables 4 and 5;
# [2] = system: Escherichia coli EC-1: VOGEL, mouse virulent; assay: MIC determination (CLSI), EC-1; type: cell-based; settings: read-out: EC-1 MIC
# Experimental: as §1, §2, §3, §4
# 2) Escherichia coli EC-1: VOGEL, mouse virulent labeled as EC-1 in Tables 4 and 5;
# [3] = system: Acinetobacter baumannii/haemolyticus: Multidrug-resistant clinical isolate AB-3167; assay: MIC determination (CLSI), AB-3167; type: cell-based; settings: overnight incubation, duplicate, lower of the two values reported
# Experimental: as §1, §2, §3, §4
# 3) Acinetobacter baumannii/haemolyticus: Multidrug-resistant clinical isolate labeled as AB-3167 in Tables 4 and 5;
# [4] = target: T1, Pseudomonas aeruginosa LpxC enzyme (Pseudomonas aeruginosa, UniProt P47205); assay: LpxC enzyme IC50 assay (PA LpxC enzyme IC50), BioTrove RapidFire mass spectrometry; type: biochemical
# T1 construct: made in house; host or cells: E. coli
# T1 sequence (P47205 1-303): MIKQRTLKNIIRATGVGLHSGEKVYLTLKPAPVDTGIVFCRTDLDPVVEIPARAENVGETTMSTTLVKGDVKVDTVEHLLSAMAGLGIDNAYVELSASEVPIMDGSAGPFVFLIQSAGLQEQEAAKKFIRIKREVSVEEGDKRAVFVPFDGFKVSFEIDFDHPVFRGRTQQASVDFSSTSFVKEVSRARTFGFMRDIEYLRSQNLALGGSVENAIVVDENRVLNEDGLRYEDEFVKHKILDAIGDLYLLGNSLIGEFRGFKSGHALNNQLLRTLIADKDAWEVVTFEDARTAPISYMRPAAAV
# Experimental: In order to assess the compounds biological activity selected in vitro assays were conducted on selected compounds. One of the assays measured the compounds ability to disrupt the synthesis of lipopolysaccharide, LPS, which is a component of the outer membrane of Gram-negative bacteria. Disruption of this synthesis is lethal to the bacteria. The assay determined the compound's ability to inhibit LpxC, which is the first enzyme in the biosynthetic pathway for LPS (measured as IC50). Additionally, MICs (minimal inhibitory concentrations) were determined for several bacteria. The specific protocols are described below:
# A) IC50 Assay LpxC Enzyme from P. aeruginosa Labeled as PA LpxC Enzyme IC50):
# At the end of 1 hour, 5 ul of 1 N HCl was added to stop the enzyme reaction, the plates were centrifuged, and then processed with the BioTrove Rapidfire HTMS Mass Spectrometry System. A no-enzyme control was used in calculating the IC50 values from the percent conversion values.
# [5] = P. aeruginosa LpxC enzyme 0.1 nM, 25° C., 1 hour, pH 8.0, read-out: PA:IC50
SMILES,MIC [1] [µg/mL],MIC [2] [µg/mL],MIC [3] [µg/mL],"IC50 [4, 5] [nM]",IC50 [4] [nM]
"CC(CCc1cc(-c2ccc(Cl)c(Cl)c2)on1)(C(=O)NO)S(C)(=O)=O (racemic) [Example 20, 4-[5-(3,4-dichlorophenyl)isoxazol-3-yl]-N-hydroxy-2-methyl-2-(methylsulfonyl)butanamide]",1,4,16,–,–
"CC(CCc1cc(-c2ccc(F)cc2F)no1)(C(=O)NO)S(C)(=O)=O (racemic) [Example 50, 4-[3-(2,4-difluorophenyl)isoxazol-5-yl]-N-hydroxy-2-methyl-2-(methylsulfonyl)butanamide]",1,16,> 64,–,–
"COc1cccc(OC)c1-c1cc(CCC(C)(C(=O)NO)S(C)(=O)=O)on1 (racemic) [Example 32, 4-[3-(2,6-dimethoxyphenyl)isoxazol-5-yl]-N-hydroxy-2-methyl-2-(methylsulfonyl)butanamide]",> 64,> 64,> 64,88.7,–
"COc1ccc(-c2cc(CCC(C)(C(=O)NO)S(C)(=O)=O)on2)cc1OC (racemic) [Example 42, 4-[3-(3,4-dimethoxyphenyl)isoxazol-5-yl]-N-hydroxy-2-methyl-2-(methylsulfonyl)butanamide]",64,> 64,> 64,38.6,–
"CC(CCc1cc(-c2cccc(F)c2)no1)(C(=O)NO)S(C)(=O)=O (racemic) [Example 34, 4-[3-(3-fluorophenyl)isoxazol-5-yl]-N-hydroxy-2-methyl-2-(methylsulfonyl)butanamide]",2,32,> 64,9.3,–
"CC(CCc1cc(-c2ccccc2F)on1)(C(=O)NO)S(C)(=O)=O (racemic) [Example 8, 4-[5-(2-fluorophenyl)isoxazol-3-yl]-N-hydroxy-2-methyl-2-(methylsulfonyl)butanamide]",1,16,> 64,–,8.3
"CC(CCc1cc(C(=O)NC2CCCCC2)no1)(C(=O)NO)S(C)(=O)=O (racemic) [Example 45, N-cyclohexyl-5-[4-(hydroxyamino)-3-methyl-3-(methylsulfonyl)-4-oxobutyl]isoxazole-3-carboxamide]",> 64,> 64,> 64,–,–
"Cc1cccc(-c2cc(CCC(C)(C(=O)NO)S(C)(=O)=O)no2)c1 (racemic) [Example 13, N-hydroxy-2-methyl-4-[5-(3-methylphenyl)isoxazol-3-yl]-2-(methylsulfonyl)butanamide]",1,32,64,–,–
"COc1ccc(-c2cc(CCC(C)(C(=O)NO)S(C)(=O)=O)on2)cc1 (racemic) [Example 47, N-hydroxy-4-[3-(4-methoxyphenyl)isoxazol-5-yl]-2-methyl-2-(methylsulfonyl)butanamide]",1,16,> 64,4.1,–
"COc1ccccc1-c1cc(CCC(C)(C(=O)NO)S(C)(=O)=O)no1 (racemic) [Example 16, N-hydroxy-4-[5-(2-methoxyphenyl)isoxazol-3-yl]-2-methyl-2-(methylsulfonyl)butanamide]",16,> 64,> 64,40.5,–
"CC(CCc1cc(CCCCCCCCCO)on1)(C(=O)NO)S(C)(=O)=O (racemic) [Example 15, N-hydroxy-4-[5-(9-hydroxynonyl)isoxazol-3-yl]-2-methyl-2-(methylsulfonyl)butanamide]",4,16,> 64,–,–
"COc1cccc(-c2cc(CCC(C)(C(=O)NO)S(C)(=O)=O)no2)c1 (racemic) [Example 29, N-hydroxy-4-[5-(3-methoxyphenyl)isoxazol-3-yl]-2-methyl-2-(methylsulfonyl)butanamide]",8,64,> 64,–,–
"CC(CCc1cc(-c2ccc(F)cc2F)on1)(C(=O)NO)S(C)(=O)=O (racemic) [Example 28, 4-[5-(2,4-difluorophenyl)isoxazol-3-yl]-N-hydroxy-2-methyl-2-(methylsulfonyl)butanamide]",–,–,–,2.8,–
"CC(CCc1cc(-c2ccnc3ccccc23)no1)(C(=O)NO)S(C)(=O)=O (racemic) [Example 46, N-hydroxy-2-methyl-2-(methylsulfonyl)-4-(3-quinolin-4-ylisoxazol-5-yl)butanamide]",–,–,–,5.4,–
"CC(CCc1cc(COc2ccc3c(c2)OCO3)on1)(C(=O)NO)S(C)(=O)=O (racemic) [Example 26, 4-{5-[(1,3-benzodioxol-5-yloxy)methyl]isoxazol-3-yl}-N-hydroxy-2-methyl-2-(methylsulfonyl)butanamide]",4,16,> 64,–,–
"COc1cccc(-c2cc(CC[C@](C)(C(=O)NO)S(C)(=O)=O)no2)c1F [Example 2, (2R)-4-[5-(2-Fluoro-3-methoxyphenyl)isoxazol-3-yl]-N-hydroxy-2-methyl-2-(methylsulfonyl)butanamide]",16,16,32,–,–
"COc1ccccc1SCc1cc(CCC(C)(C(=O)NO)S(C)(=O)=O)no1 (racemic) [Example 19, N-hydroxy-4-(5-{[(2-methoxyphenyl)thio]methyl}isoxazol-3-yl)-2-methyl-2-(methylsulfonyl)butanamide]",64,> 64,> 64,–,–
"COc1ccc(C(=O)NCc2cc(CCC(C)(C(=O)NO)S(C)(=O)=O)no2)cc1 (racemic) [Example 11, N-({3-[4-(hydroxyamino)-3-methyl-3-(methylsulfonyl)-4-oxobutyl]isoxazol-5-yl}methyl)-4-methoxybenzamide]",> 64,> 64,> 64,–,–
"COc1ccc(-c2cc(CC[C@](C)(C(=O)NO)S(C)(=O)=O)no2)c(F)c1 [Example 5, (2R)-4-[5-(2-fluoro-4-methoxyphenyl)isoxazol-3-yl]-N-hydroxy-2-methyl-2-(methylsulfonyl)butanamide]",0.25,4,> 64,–,–
"CC(CCc1cc(CN(CCOc2ccccc2)C2CC2)on1)(C(=O)NO)S(C)(=O)=O (racemic) [Example 18, 4-(5-{[cyclopropyl(2-phenoxyethyl)amino]methyl}isoxazol-3-yl)-N-hydroxy-2-methyl-2-(methylsulfonyl)butanamide]",> 64,> 64,> 64,–,–
"CC(CCc1cc(-c2cnc3ccccc3c2)no1)(C(=O)NO)S(C)(=O)=O (racemic) [Example 40, N-hydroxy-2-methyl-2-(methylsulfonyl)-4-(3-quinolin-3-ylisoxazol-5-yl)butanamide]",–,–,–,25.2,–
